Columns and labels:
Format in all cases: in vivo
[1] = test system: foxtail, giant (giant foxtail, Setaria faberii); assay: Test C greenhouse herbicide test, pre- and postemergence
In short: (§1)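 Visual 0–100 injury score (100 = complete control) taken against untreated controls after 13–15 d in greenhouse. Test chemicals, formulated in solvent plus surfactant, applied preemergence to seeds in loam–sand soil or postemergence to 1- to 4-leaf plants (2–18 cm).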

[2] = test system: blackgrass (Alopecurus myosuroides); assay: as above
In short: as §1

[3] = test system: crabgrass, large (large crabgrass, Digitaria sanguinalis); assay: as above
In short: as §1

[4] = test system: soybean (Glycine max); assay: as above
In short: as §1

[5] = test system: corn (Zea mays); assay: as above
In short: as §1

[6] = test system: lambsquarters (Chenopodium album); assay: as above
In short: as §1

[7] = test system: wheat (winter wheat, Triticum aestivum); assay: as above
In short: as §1

[8] = test system: johnsongrass (Sorghum halepense); assay: as above
In short: as §1

[9] = test system: ryegrass, Italian (Italian ryegrass, Lolium multiflorum); assay: as above
In short: as §1

[10] = test system: pigweed (Amaranthus retroflexus); assay: as above
In short: as §1

[11] = test system: barnyardgrass (Echinochloa crus-galli); assay: as above
In short: as §1

[12] = test system: ragweed (common ragweed, Ambrosia elatior); assay: as above
In short: as §1

[13] = test system: waterhemp (common waterhemp, Amaranthus rudis); assay: as above
In short: as §1

[14] = test system: morningglory (Ipomoea coccinea); assay: as above
In short: as §1

[15] = test system: oat, wild (wild oat, Avena fatua); assay: Test C greenhouse herbicide test, postemergence
In short: (§2)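 Greenhouse postemergence spray on plants 2–18 cm tall; response judged visually after 13–15 d relative to untreated controls using a 0 (none) to 100 (full control) scale.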

[16] = test system: kochia (Kochia scoparia); assay: Test C greenhouse herbicide test, postemergence
In short: as §2

[17] = Postemergence, 31 g ai/ha, scale 0 to 100 (0 no effect, 100 complete control)
[18] = Postemergence, 62 g ai/ha, 0 to 100 scale (0 no effect, 100 complete control)
[19] = Postemergence, 250 g ai/ha, scale 0 to 100, 0 no effect, 100 complete control, 13 to 15 d
[20] = Preemergence, 31 g ai/ha, scale 0 to 100, 0 is no effect, 100 is complete control
[21] = Preemergence, 62 g ai/ha, scale 0 to 100, 0 is no effect, 100 is complete control
[22] = Preemergence, 125 g ai/ha, scale 0 to 100, 0 is no effect, 100 is complete control
[23] = Preemergence, 250 g ai/ha, scale 0 to 100 (0 no effect, 100 complete control)
[24] = postemergence, 125 g ai/ha, scale 0 to 100, 0 no effect, 100 complete control

CC(=O)Oc1c(C)nn(C)c(=O)c1-c1c(C)cc(C)c2ccccc12 [Compound 153]
85: Foxtail, Giant plant response rating [1, 18] | Blackgrass plant response rating [2, 18] | Plant response rating, Lambsquarters [6, 17] | Plant response rating, Pigweed [10, 17] | Plant response rating, Pigweed [10, 19] | Pigweed plant response rating [10, 24] | Plant response rating, Barnyardgrass [11, 20] | Plant response rating, Kochia [16, 19]
75: Plant response rating, Crabgrass, Large [3, 19] | Pigweed plant response rating [10, 18]
60: Barnyardgrass plant response rating [11, 18]
80: Plant response rating, Foxtail, Giant [1, 17] | Plant response rating, Blackgrass [2, 17] | Plant response rating, Crabgrass, Large [3, 20] | Plant response rating, Waterhemp [13, 20] | Kochia plant response rating [16, 24]
45: Soybean plant response rating [4, 23]
100: Plant response rating, Foxtail, Giant [1, 21] | Plant response rating, Foxtail, Giant [1, 22] | Foxtail, Giant plant response rating [1, 23] | Plant response rating, Crabgrass, Large [3, 21] | Crabgrass, Large plant response rating [3, 23] | Plant response rating, Lambsquarters [6, 21] | Plant response rating, Lambsquarters [6, 22] | Plant response rating, Pigweed [10, 20] | Plant response rating, Pigweed [10, 21] | Plant response rating, Pigweed [10, 22] | Pigweed plant response rating [10, 23] | Plant response rating, Barnyardgrass [11, 21] | Plant response rating, Barnyardgrass [11, 22] | Barnyardgrass plant response rating [11, 23] | Ragweed plant response rating [12, 23] | Waterhemp plant response rating [13, 23] | Morningglory plant response rating [14, 18] | Plant response rating, Morningglory [14, 19]
25: Corn plant response rating [5, 24] | Plant response rating, Johnsongrass [8, 20]
55: Plant response rating, Crabgrass, Large [3, 17]
20: Plant response rating, Soybean [4, 20] | Plant response rating, Soybean [4, 22] | Plant response rating, Corn [5, 17] | Wheat plant response rating [7, 18]
90: Foxtail, Giant plant response rating [1, 24] | Plant response rating, Blackgrass [2, 19] | Plant response rating, Blackgrass [2, 20] | Plant response rating, Blackgrass [2, 21] | Blackgrass plant response rating [2, 24] | Lambsquarters plant response rating [6, 18] | Plant response rating, Ryegrass, Italian [9, 17] | Plant response rating, Ryegrass, Italian [9, 20] | Plant response rating, Ryegrass, Italian [9, 22] | Plant response rating, Barnyardgrass [11, 19] | Ragweed plant response rating [12, 18] | Plant response rating, Ragweed [12, 19] | Plant response rating, Waterhemp [13, 19] | Waterhemp plant response rating [13, 24] | Plant response rating, Morningglory [14, 21] | Plant response rating, Oat, Wild [15, 17]
65: Corn plant response rating [5, 23] | Plant response rating, Johnsongrass [8, 22] | Waterhemp plant response rating [13, 18]
10: Soybean plant response rating [4, 18] | Plant response rating, Soybean [4, 21] | Soybean plant response rating [4, 24] | Plant response rating, Corn [5, 19] | Plant response rating, Wheat [7, 19] | Plant response rating, Wheat [7, 21] | Wheat plant response rating [7, 24] | Plant response rating, Johnsongrass [8, 17] | Johnsongrass plant response rating [8, 24]
0: Plant response rating, Corn [5, 20] | Plant response rating, Corn [5, 21] | Plant response rating, Wheat [7, 20]
15: Plant response rating, Wheat [7, 17] | Plant response rating, Johnsongrass [8, 19]
5: Plant response rating, Soybean [4, 17] | Plant response rating, Soybean [4, 19] | Johnsongrass plant response rating [8, 18]
40: Plant response rating, Corn [5, 22] | Plant response rating, Barnyardgrass [11, 17] | Plant response rating, Kochia [16, 17]
98: Plant response rating, Foxtail, Giant [1, 20] | Plant response rating, Crabgrass, Large [3, 22] | Lambsquarters plant response rating [6, 23] | Plant response rating, Ragweed [12, 22] | Plant response rating, Morningglory [14, 17] | Plant response rating, Morningglory [14, 22] | Morningglory plant response rating [14, 23] | Morningglory plant response rating [14, 24]
95: Plant response rating, Foxtail, Giant [1, 19] | Plant response rating, Blackgrass [2, 22] | Blackgrass plant response rating [2, 23] | Plant response rating, Lambsquarters [6, 19] | Plant response rating, Lambsquarters [6, 20] | Lambsquarters plant response rating [6, 24] | Ryegrass, Italian plant response rating [9, 18] | Plant response rating, Ryegrass, Italian [9, 19] | Plant response rating, Ryegrass, Italian [9, 21] | Ryegrass, Italian plant response rating [9, 23] | Ryegrass, Italian plant response rating [9, 24] | Plant response rating, Ragweed [12, 20] | Plant response rating, Ragweed [12, 21] | Ragweed plant response rating [12, 24] | Plant response rating, Waterhemp [13, 21] | Plant response rating, Waterhemp [13, 22] | Plant response rating, Morningglory [14, 20] | Oat, Wild plant response rating [15, 18] | Plant response rating, Oat, Wild [15, 19] | Oat, Wild plant response rating [15, 24]
70: Johnsongrass plant response rating [8, 23] | Plant response rating, Barnyardgrass ([11]; Postemergence, 125 g ai/ha, scale 0 to 100, 0 is no effect, 100 is complete control) | Plant response rating, Ragweed [12, 17] | Plant response rating, Waterhemp [13, 17] | Kochia plant response rating [16, 18]
35: Corn plant response rating [5, 18]
50: Crabgrass, Large plant response rating [3, 18] | Crabgrass, Large plant response rating [3, 24] | Wheat plant response rating [7, 23] | Plant response rating, Johnsongrass [8, 21]
30: Plant response rating, Wheat [7, 22]
